In patent US9795570B2, “Modulation of macrophage phenotype by emodin” (University of South Carolina, priority 2016, dated 2017):

Tested on: mouse peritoneal macrophages
Test: Macrophage memory experiments (re-stimulation after washout)
Type: cell-based
Method: For macrophage memory experiments, macrophages were stimulated overnight with IL4, IFNγ, and/or emodin. Following, the cells were washed 3× with PBS and cultured for 2 or 5 days in DMEM with 2% FBS. The media were changed every 2 days. The cells were then re-stimulated with IL4 or LPS for 6 h.
For qPCR, macrophages were lysed with Qiazol and RNA was extracted using Zymo research Direct-zol RNA isolation kit. cDNA was then made from 1 microgram of RNA using iScript cDNA Synthesis Kit (Bio-Rad Life Science). Run conditions were 95° C. for 10 s, 58° C. for 15 s, 70° C. for 15 s. Samples were run in duplicate on a Bio-rad CFX Real Time thermocycler.

Cc1cc(O)c2c(c1)C(=O)c1cc(O)cc(O)c1C2=O [emodin]
macrophage response to IL4 after emodin pretreatment alone (50 μM 24 h, 2-d washout, IL4 6 h): significantly reduced | macrophage response to LPS after emodin pretreatment alone (50 μM 24 h, 2-d washout, LPS 6 h): no effect | nuclear STAT1 or STAT6 after 5 days of wash-out (IFNγ or IL4 pretreated cells with or without emodin): no significant difference | macrophage response to LPS after IL4 pre-treatment (crossover) (co-pretreatment with emodin): did not have any effects | response to secondary IL-4 stimulation after IFNγ pretreatment (crossover) (emodin co-pretreatment): decreased the response | response to second LPS or IL-4 treatment (iNOS, Arg1 expression) (first treated with emodin 50 μM with IFNγ or IL4 24 h, 2 d or 5 d washout): significantly diminished
